# Measured values: ChEMBL document CHEMBL1133518, “5-[1'-(2'-N-Arylsulfonyl-1',2',3',4'-tetrahydroisoquinolyl)]-4, 5-dihydro-2(3H)-furanones: positive allosteric modulators of the GABA(A) receptor with a new mode of action” (J Med Chem, 2000)
# Activity calls are given as the source filed them. No cut-off for these calls is given here.
# Legend:
# [1] = molecular target: T1, GABA-A receptor; alpha-1/beta-2/gamma-2 (Rattus norvegicus) (UniProt P18508+P62813+P63138); test: Percent stimulation of Cl- current in Xenopus laevis oocytes expressing rat GABA-A alpha-1-beta-2-gamma-2 subunits at 100 uM; assay type: functional, cell-based; conditions: Oocyte
# [2] = molecular target: T2, GABA-A receptor; anion channel (Rattus norvegicus) (UniProt O09028+P15431+P18506+P18508+P19969+P20236+P23574+P23576+P28471+P28473+P30191+P62813+P63079+P63138+Q91ZM7+Q9ES14); test: (§1) Displacement of [3H]flunitrazepam from GABA-A receptor of rat cerebellum; assay type: tissue-based; set-up: concentration or dose not given beside the values
# [3] = molecular target: T2, GABA-A receptor; anion channel (Rattus norvegicus); test: (§2) Displacement of [3H]flunitrazepam from GABA-A receptor of rat forebrain; set-up: concentration or dose not given beside the values
# [4] = molecular target: T2, GABA-A receptor; anion channel (Rattus norvegicus); test: In vitro displacement of [35S]TBPS from Gamma-aminobutyric acid A receptor of rat brain membranes; assay type: cell membranes; set-up: concentration or dose not given beside the values; conditions: Membrane
# [5] = molecular target: T2, GABA-A receptor; anion channel (Rattus norvegicus); test: In vitro displacement of [3H]muscimol from Gamma-aminobutyric acid A receptor of rat brain membranes; assay type: cell membranes; conditions: Membrane
# [6] = molecular target: GABA-A receptor; anion channel; test: as §1; assay type: tissue-based
# [7] = molecular target: GABA-A receptor; anion channel; test: as §2
# [8] = molecular target: T2, GABA-A receptor; anion channel (Rattus norvegicus); test: In vitro displacement of [3H]muscimol from Gamma-aminobutyric acid A receptor of rat brain membranes (15% stimulation); assay type: cell membranes; conditions: Membrane
# [9] = molecular target: T1, GABA-A receptor; alpha-1/beta-2/gamma-2 (Rattus norvegicus); test: Percent stimulation of 5-alpha-pregnan-3-alpha-ol-20-one elicited Cl- current in Xenopus laevis oocytes expressing rat GABA-A alpha-1-beta-2-gamma-2 subunits at 30 uM; assay type: functional, cell-based; conditions: Oocyte
# [10] = molecular target: T1, GABA-A receptor; alpha-1/beta-2/gamma-2 (Rattus norvegicus); test: Percent stimulation of pentobarbital elicited Cl- current in Xenopus laevis oocytes expressing rat GABA-A alpha-1-beta-2-gamma-2 subunits at 30 uM; assay type: functional, cell-based; conditions: Oocyte
# [11] = molecular target: T2, GABA-A receptor; anion channel (Rattus norvegicus); test: In vitro displacement of [3H]muscimol from Gamma-aminobutyric acid A receptor of rat brain membranes, range 5-10% stimulation; assay type: cell membranes; conditions: Membrane
# [12] = molecular target: T2, GABA-A receptor; anion channel (Rattus norvegicus); test: In vitro displacement of [3H]muscimol from Gamma-aminobutyric acid A receptor of rat brain membranes, slight stimulation activity; assay type: cell membranes; conditions: Membrane
Stimulation [1] [%],Displacement [2] [%],Displacement [3] [%],Displacement [4] [%],Displacement [5] [%],IC50 [6] [µM],IC50 [7] [µM],Displacement [8] [%],Stimulation [9] [%],Stimulation [10] [%],Displacement [11] [%],Displacement [12],Structure (SMILES)
32,26,20,0,0,–,–,–,–,–,–,–,CS(=O)(=O)N1CCc2ccccc2[C@@H]1[C@H]1CCC(=O)O1
859,67,49,–,–,–,–,–,644,588,–,–,Cc1ccc(S(=O)(=O)N2CCc3ccccc3[C@@H]2[C@H]2CCC(=O)O2)cc1 (stereo in doubt)
353,66,47,25,0,–,–,–,–,–,–,–,O=C1CC[C@H]([C@H]2c3ccccc3CCN2S(=O)(=O)c2cccs2)O1
579,66,49,15,–,–,–,–,–,–,10,–,Cc1ccc(S(=O)(=O)N2CCc3ccccc3[C@@H]2[C@H]2CCC(=O)O2)cc1 (racemic)
62,20,20,0,–,–,–,–,–,–,–,inactive,CN(C)S(=O)(=O)N1CCc2ccccc2[C@@H]1[C@H]1CCC(=O)O1

# The remaining lines, values behind:
Structure (SMILES),Stimulation [1] [%],Displacement [2] [%],Displacement [3] [%],Displacement [4] [%],Displacement [5] [%],IC50 [6] [µM],IC50 [7] [µM],Displacement [8] [%],Stimulation [9] [%],Stimulation [10] [%],Displacement [11] [%],Displacement [12]
Cc1ccc(S(=O)(=O)N2CCc3ccccc3[C@@H]2[C@H]2CCC(=O)O2)cc1 (stereo in doubt; 2c),184,61,35,–,–,–,–,–,–,–,–,–
O=C1CC[C@H]([C@H]2c3ccccc3CCN2C(=O)OCc2ccccc2)O1 (racemic),351,–,–,0,0,0.06,0.16,–,–,–,–,–
O=C1CC[C@H]([C@H]2c3ccccc3CCN2S(=O)(=O)c2ccc3ccccc3c2)O1,118,14,9,0,–,–,–,15,–,–,–,–
O=C1CC[C@H]([C@H]2c3ccccc3CCN2S(=O)(=O)c2ccc(C(F)(F)F)cc2)O1,90,42,30,0,0,–,–,–,–,–,–,–
O=C1CC[C@H]([C@H]2c3ccccc3CCN2S(=O)(=O)c2ccccc2)O1 (racemic),423,74,66,50,–,–,–,–,–,–,–,inactive
O=C1CC[C@H]([C@H]2c3ccccc3CCN2S(=O)(=O)c2ccc(Cl)cc2)O1 (racemic),479,43,30,60,–,–,–,–,–,–,–,inactive
